Test results published in US10501479B2, “Benzenesulfonyl-asymmetric ureas and medical uses thereof” (HELSINN HEALTHCARE SA, priority 2016, dated 2019).
Several values for one entry are separate records, joined by “and”; a condition that tells them apart may be missing. Equal entries are not always repeated. Where two headings read alike, the source gives them in different places.

Experiments:
[1] = Metabolic stability in human liver microsomes; format: in vitro ADME
How it was run: (§1)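 First, microsomes and compound are preincubated 5 min at 37 °C in pH 7.4 phosphate buffer. Next, an NADPH regenerating system starts the reaction. Then aliquots are quenched cold at 10, 30 and 90 min, centrifuged and analysed by LC-MS/MS.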

[2] = target: T1, recombinant human ghrelin receptor (HEK293/GRLN) (Homo sapiens, UniProt Q92847); test: Ghrelin inverse agonist potency (EC50) with IP-1 (IP-One HTRF) assay; format: cell-based; conditions: IP-1 assay
T1 construct: expressed in transfected cells
How it was run: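 IP-1 accumulation was measured by HTRF (IP1-d2/Tb-cryptate, 620/665 nm read after 1 hour at room temperature) following 1 hour of compound treatment at 37° C. Cells were HEK293 stably expressing human ghrelin receptor, plated a day earlier on Matrigel. Inverse agonist potency was reported as EC50.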

[3] = Metabolic stability in mouse liver microsomes; format: in vitro ADME
How it was run: as §1

[4] = Animal PK study in mouse via i.v., p.o. and s.c. administration; format: in vivo
Description: All treated animals received a single dose of a test compound (either through i.v., p.o., or s.c. administration) according to the regimen shown in the following table:
For oral dose groups, appropriate amount of test compound was prepared in the following formulation carrier: 1% DMSO (increase to 5% maximum if necessary) and 0.5% Methycellulose. Each mouse or rat received by oral gavage 10 mL/kg of the formulation mixture.
For i.v. and s.c dose groups, appropriate amount of test compound was dissolved in 1% DMSO (increase to 5% maximum if necessary), 99% of 20% HP-β-Cyclodextron (w/v). The pH was adjusted accordingly. Each mouse or rat received 5 mL/kg of the formulation mixture. i.v. dose was administered by tail vein injection. Subcutaneous injection was administered over the shoulders, into the loose skin over the neck. At designated time points (e.g., i.v. and s.c.: 0.083, 0.25, 0.5, 1, 2, 4, 8 and 24 hrs; p.o.: 0.25, 0.5, 1, 2, 4, 8 and 24 hrs), systemic samples of blood (50 μL in mouse or 500 μL in rat) were collected by puncture (submandibular vein in mouse or jugular vein in rat) into vacutainers containing EDTA-K2 as anti-coagulant. The blood was centrifuged at 6000 rpm for 8 min at 4° C. to obtain plasma. All plasma samples were stored at −20° C. All plasma samples were added to acetonitrile for protein precipitation and quantitatively analyzed by LC-MS/MS.

[5] = target: T2, GHSR-1a (HEK293/GHSR1a cell line) (Homo sapiens, UniProt Q92847); test: Ghrelin antagonist potency (IC50) with calcium FLIPR assay, ghrelin 10 nM; format: cell-based
T2 construct: expressed in transfected cells; host or cells: HEK293/GHSR1a cell line
How it was run: (§2)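 The cells were plated a day ahead and loaded with a calcium-sensitive dye. Test compound was then added and incubated 15 min, followed by ghrelin. Antagonist potency was calculated from inhibition of the response to 10 nM ghrelin, and agonist potency from the calcium rise caused by compound alone.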

[6] = target: T2, GHSR-1a (HEK293/GHSR1a cell line); test: Ghrelin agonist potency (EC50) with calcium FLIPR assay; format: cell-based
How it was run: as §2

[7] = inverse agonist potency, read-out: EC50 (Activity)
[8] = ghrelin antagonist potency, read-out: IC50 (Activity)
[9] = ghrelin inverse agonist potency, read-out: Activity EC50
[10] = ghrelin agonist potency, read-out: Activity EC50/EMax
[11] = ghrelin antagonist potency, read-out: Activity IC50

T1 sequence (Q92847 whole entry): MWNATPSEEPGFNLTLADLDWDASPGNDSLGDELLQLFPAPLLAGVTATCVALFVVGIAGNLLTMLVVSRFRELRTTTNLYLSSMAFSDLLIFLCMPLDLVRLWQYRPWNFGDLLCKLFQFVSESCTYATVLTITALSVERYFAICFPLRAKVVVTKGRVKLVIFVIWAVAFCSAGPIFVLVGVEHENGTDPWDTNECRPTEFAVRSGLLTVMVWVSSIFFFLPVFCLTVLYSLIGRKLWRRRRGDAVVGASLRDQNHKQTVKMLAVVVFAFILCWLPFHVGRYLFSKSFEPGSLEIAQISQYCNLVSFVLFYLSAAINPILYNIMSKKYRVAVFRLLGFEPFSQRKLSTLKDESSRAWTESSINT
T2 sequence (Q92847 whole entry): as above

SMILES | Metabolic Stability Study H = human [1] | EC50 [2, 7] | Metabolic Stability Study M = mouse [3] | PK F [4] [%] | PK CLiv ([4]; i.v.) [mL/min/kg] | PK Vdiv ([4]; i.v.) [L/kg] | PK t1/2iv ([4]; i.v.) [h] | PK CLpo ([4]; p.o.) [mL/min/kg] | PK Vdpo ([4]; p.o.) [L/kg] | PK t1/2po ([4]; p.o.) [h] | IC50 [5, 8] [nM] | EC50 [2, 9] [nM] | EC50 [6, 10] [nM] | IC50 [5, 11] [nM] | other results
C[C@H](NC(=O)Nc1ccc(S(=O)(=O)Cc2ccc(CC(C)(C)N(C)C)cc2)cc1)c1cccc(Cl)c1Cl [H1010, (S)-1-(1-(2,3-dichlorophenyl)ethyl)-3-(4-((4-(2-(dimethylamino)-2-methylpropyl)benzyl)sulfonyl)phenyl)urea] | H = 40.5 M = 40.5 R = not reported D = not reported μL/min/mg | 15 nM | H = 40.5 M = 40.5 R = not reported D = not reported μL/min/mg | 3.09 | 55.7 | 1.39 | 1.39 | 1803 | 169 | 1.08 | 42 |  |  |  | 
COc1ccc([C@H](C)NC(=O)Nc2ccc(S(=O)(=O)Cc3ccc4c(c3)CCN(C(C)=O)C4)cc2)c(Cl)c1Cl [H1025, (S)-1-(4-(((2-acetyl-1,2,3,4-tetrahydroisoquinolin-6-yl)methyl)sulfonyl)phenyl)-3-(1-(2,3-dichloro-4-methoxyphenyl)ethyl)urea] | 92.4 µL/min/mg |  | 159.5 µL/min/mg | 5.92 | 30.7 | 2.86 | 1.08 | 514.8 | 94.83 | 1.45 | 21400 |  |  |  | 
O=C(NCc1ccccc1Cl)Nc1ccc(S(=O)(=O)Cc2ccc3c(c2)CCNC3)cc1 [H1039, 1-(2-chlorobenzyl)-3-(4-(((1,2,3,4-tetrahydroisoquinolin-6-yl)methyl)sulfonyl)phenyl)urea] | < 10 µL/min/mg | 33.3 nM | 13.5 µL/min/mg | 0.6 | 42.5 | 11.7 | 3.18 | 5573 | 898 | 1.86 | 113 |  |  |  | 
CC(NC(=O)Nc1ccc(S(=O)(=O)Cc2ccc3c(c2)CNC3)cc1)c1cccc2ccccc12.Cl (centres unmarked) [H1149, 1-(4-((isoindolin-5-ylmethyl)sulfonyl)phenyl)-3-(1-(naphthalen-1-yl)ethyl)urea] | 21.1 µL/min/mg | 1.69 nM and 2.41 nM | 24.3 µL/min/mg | 0.86 | 16.3 | 1.22 | 0.87 | 1792 | 272 | 1.75 | 4.8 |  |  |  | 
CC(NC(=O)Nc1ccc(S(=O)(=O)Cc2ccc3c(c2)CN(CC2CC2)C3)cc1)c1ccccc1 (centres unmarked) [H1220, 1-(4-(((2-(cyclopropylmethyl)isoindolin-5-yl)methyl)sulfonyl)phenyl)-3-(1-phenylethyl)urea] | 183.8 µL/min/mg | 30.4 nM | 248 µL/min/mg | 4.71 | 50.8 | 3.08 | 0.7 | 1030 | 78.7 | 0.89 | 3.61 |  |  |  | 
CC(NC(=O)Nc1ccc(S(=O)(=O)Cc2ccc3c(c2)CN(C)C3)cc1O)c1ccccc1 (centres unmarked) [H1448, 1-(2-hydroxy-4-(((2-methylisoindolin-5-yl)methyl)sulfonyl)phenyl)-3-(1-phenylethyl)urea] | 28 µL/min/mg |  | 20.8 µL/min/mg | 1.90 |  |  |  |  |  |  |  |  |  |  | EC50 ([2]; HEK293/GRLN, read-out: Activity EC50 (ghrelin inverse agonist potency)): 3.3 nM; EC50 ([6]; HEK293/GHSR1a, read-out: Activity EC50/EMax: EC50 (ghrelin agonist potency)): > 30000 nM; PK CL p.o. ([4]; p.o.): 4243 mL/min/kg; PK Vd p.o. ([4]; p.o.): 242.2 L/kg; Vd ([4]; plasma, iv, 5 mg/kg): 9.26 L/kg; clearance ([4]; plasma, iv, 5 mg/kg, i.v., read-out: PK CL i.v.): 80.5 mL/min/kg; half-life ([4]; plasma, iv, 5 mg/kg, i.v., read-out: PK t1/2 i.v.): 1.33 h; half-life ([4]; plasma, po, 10 mg/kg, p.o., read-out: PK t1/2 p.o.): 0.66 h; IC50 ([5]; HEK293/GHSR1a, ghrelin 10 nM, read-out: Activity IC50 (ghrelin antagonist potency)): 30.3 nM
COc1cc(NC(=O)N(O)C(C)c2ccccc2)ccc1S(=O)(=O)Cc1ccc2c(c1)CN(C)C2 (centres unmarked) [H1516, 1-hydroxy-3-(3-methoxy-4-(((2-methylisoindolin-5-yl)methyl)sulfonyl)phenyl)-1-(1-phenylethyl)urea] | 65.2 µL/min/mg |  | 35.1 µL/min/mg |  |  |  |  |  |  |  |  | 11.3 | > 30000 | 33.5 | 
COc1cc(S(=O)(=O)Cc2ccc3c(c2)CNC3)ccc1NC(=O)N(O)C(C)c1ccccc1 (centres unmarked) [H1517, 1-hydroxy-3-(4-((isoindolin-5-ylmethyl)sulfonyl)-2-methoxyphenyl)-1-(1-phenylethyl)urea] | 25.6 µL/min/mg |  | 56.6 µL/min/mg |  |  |  |  |  |  |  |  | 6.7 | > 30000 | 10.5 | 
COc1cc(S(=O)(=O)Cc2ccc3c(c2)CN(C)C3)ccc1NC(=O)N(O)C(C)c1ccccc1 (centres unmarked) [H1518, 1-hydroxy-3-(2-methoxy-4-(((2-methylisoindolin-5-yl)methyl)sulfonyl)phenyl)-1-(1-phenylethyl)urea] | 151.1 µL/min/mg |  | 154.7 µL/min/mg |  |  |  |  |  |  |  |  | 7.8 | > 30000 | 27.4 | 
CC(NC(=O)Nc1ccc(S(=O)(=O)Cc2ccc3c(c2)CNC3)cc1-c1cc[nH]n1)c1ccccc1 (centres unmarked) [H1519, 1-(4-((isoindolin-5-ylmethyl)sulfonyl)-2-(1H-pyrazol-3-yl)phenyl)-3-(1-phenylethyl)urea] | 47.3 µL/min/mg |  | 169.8 µL/min/mg |  |  |  |  |  |  |  |  | 4.6 | > 30000 | 12.1 | 
COc1cc(S(=O)(=O)Cc2ccc3c(c2)CCN(C)C3)ccc1NC(=O)N(O)C(C)c1cccc(Cl)c1Cl.O=C(O)C(F)(F)F (centres unmarked) [H1523, 1-(1-(2,3-dichlorophenyl)ethyl)-1-hydroxy-3-(2-methoxy-4-(((2-methyl-1,2,3,4-tetrahydroisoquinolin-6-yl)methyl)sulfonyl)phenyl)urea] | 100.9 µL/min/mg |  | 155.5 µL/min/mg |  |  |  |  |  |  |  |  | 2.1 | > 30000 | 4.92 | 
C[C@@H](NC(=O)Nc1ccc(S(=O)(=O)Cc2ccc3c(c2)C(F)CNC3)cc1)c1cccc(Cl)c1Cl (stereo partly drawn) [H1537, 1-((R)-1-(2,3-dichlorophenyl)ethyl)-3-(4-(((4-fluoro-1,2,3,4-tetrahydroisoquinolin-6-yl)methyl)sulfonyl)phenyl)urea] | 43.2 µL/min/mg |  | 135.3 µL/min/mg |  |  |  |  |  |  |  |  | 18.4 | > 30000 | 69 | 
C[C@@H](NC(=O)Nc1ccc(S(=O)(=O)Cc2ccc3c(c2)C(F)CN(C)C3)cc1)c1cccc(Cl)c1Cl (stereo partly drawn) [H1538, 1-((R)-1-(2,3-dichlorophenyl)ethyl)-3-(4-(((4-fluoro-2-methyl-1,2,3,4-tetrahydroisoquinolin-6-yl)methyl)sulfonyl)phenyl)urea] | 237.3 µL/min/mg |  | 354 µL/min/mg |  |  |  |  |  |  |  |  | 8.6 | > 30000 | 172 | 
